{"source": "patent US20180015054A1", "about": "“Method of Maintaining the Anti-Depressant Effect of Ketamine With Lithium” (Icahn School of Medicine at Mount Sinai, priority 2014, published 2018)", "key": {"[1]": {"system": "patients with BPD, TRD, MDD and PTSD", "settings": "cited from earlier work"}, "[2]": {"system": "PTSD symptom severity", "settings": "assessed 24 hours after infusion; cited from earlier work"}, "[3]": {"system": "patients with treatment-resistant major depression", "settings": "cited from earlier work"}, "[4]": {"system": "depressive symptoms", "settings": "cited from earlier work"}, "[5]": {"system": "patients with treatment-resistant depression (TRD)", "settings": "cited from earlier work"}, "[6]": {"system": "patients with treatment-resistant major depression", "settings": "cited from earlier work", "remark": "listed apart in the source"}, "[7]": {"system": "patients with treatment-resistant major depression (TRD)", "experiment": "Planned randomized placebo-controlled double-blind trial of lithium + ketamine in TRD", "assay_type": "in vivo, human", "source_text": "A single-site early phase study will enroll patients with treatment-resistant major depression (TRD) in a randomized, placebo (PLC)-controlled, double blind clinical trial of lithium (Li)+ketamine (KET). The study will efficiently test the efficacy of Li compared to PLC in continuing the antidepressant response to KET. The study occurs in several phases. During a Screening phase participants undergo informed consent followed by a thorough medical and psychiatric evaluation. Eligible participants who meet all study inclusion/exclusion criteria receive a single Test KET(ketamine) Infusion to determine antidepressant response status. Non-responders [defined as <50% improvement in depression severity as measured by the Montgomery-Asberg Depression Rating Scale (MADRS) 24 hours following the infusion] are exited from the study and provided with standard of care. KET responders (2:50% improvement in MADRS) proceed to the Li/PLC treatment phase in which participants receive up to 1200 mg/day of Li or matching PLC under double blind conditions. Participants proceed to a 4-week Continuation Phase while remaining on their treatment assignment (Li/PLC) during which time depressive symptoms are monitored twice weekly. The primary outcome is depression severity as measured by the MADRS in the Li compared to PLC group at the 2-week point during the Continuation Phase. […]"}, "[8]": {"system": "PTSD patients", "settings": "three clusters: re-experiencing, avoidance and numbing, hyperarousal; cited from earlier work"}}}
{"smiles": "CNC1(c2ccccc2Cl)CCCCC1=O", "note": "(centres unmarked) [ketamine]", "values": [{"measurement": "onset of antidepressant effects", "setting": "[1]; as early as, following single intravenous administration", "value": 40, "unit": "min"}, {"measurement": "duration of antidepressant efficacy", "setting": "[1]; following a single administration", "value": "a few days to approximately a week or two"}, {"measurement": "reduction in PTSD symptom severity compared with midazolam", "setting": "[2]", "value": "significant and rapid reduction"}, {"measurement": "cumulative risk of relapse", "setting": "[3]; 3-month observation period, free of concomitant medication", "value": 70, "unit": "%"}, {"measurement": "time to rapid improvement in depressive symptoms", "setting": "[3]; after first ketamine infusion", "value": "≤ 24", "unit": "h"}, {"measurement": "median time to relapse", "setting": "[3]; following sixth and final ketamine infusion", "value": 18, "unit": "days"}, {"measurement": "overall response rate", "setting": "[3]; repeated infusions over 2 weeks", "value": 70.8, "unit": "%"}, {"measurement": "cumulative probability of relapse", "setting": "[4]; 4-week assessment period after ketamine", "value": 73, "unit": "%"}, {"measurement": "cumulative risk of relapse", "setting": "[5]; 4-week observation period after ketamine", "value": 62, "unit": "%"}, {"measurement": "response rate (reduction of 50% or more on MADRS)", "setting": "[5]; 26 TRD patients, single open-label IV infusion 0.5 mg/kg", "value": 65, "unit": "%"}, {"measurement": "improvement in MADRS score compared to midazolam group", "setting": "[6]; 24 hours after single IV infusion 0.5 mg/kg, P<0.001", "value": "significantly greater improvement"}, {"measurement": "duration of efficacy following a ketamine infusion", "setting": "[6]; no longer separated from placebo at 7-day time point", "value": 1, "unit": "week"}, {"measurement": "duration of dissociative or psychotomimetic effects", "setting": "[6]; no patient beyond this time", "value": "≤ 2", "unit": "h"}, {"measurement": "safety and tolerability", "setting": "[6]; single IV infusion 0.5 mg/kg", "value": "very safe and well tolerated"}]}
{"smiles": "O=C([O-])[O-].[Li+].[Li+]", "note": "[lithium, lithium carbonate]", "values": [{"measurement": "anticipated maintenance of the ketamine anti-depressant effect", "setting": "[7]; ketamine responders receiving lithium, after last dose of ketamine", "value": "at least two or three months"}, {"measurement": "expected duration of therapeutic effect of lithium following a response to ketamine", "setting": "[7]; lithium carbonate 300-1800 mg daily", "value": "at least 3 months"}]}
{"smiles": "Fc1ccc([C@@H]2CCNC[C@H]2COc2ccc3c(c2)OCO3)cc1", "note": "[paroxetine]", "values": [{"measurement": "efficacy in PTSD", "setting": "[8]", "value": "modest effect sizes and limited efficacy"}]}
{"smiles": "Nc1nc2ccc(OC(F)(F)F)cc2s1", "note": "[riluzole]", "values": [{"measurement": "relapse prevention following ketamine compared to placebo", "setting": "[4]; 4-week study", "value": "no benefit of riluzole beyond placebo"}, {"measurement": "relapse prevention following ketamine compared to placebo", "setting": "[5]; TRD", "value": "not superior to placebo"}]}
{"smiles": "CN[C@H]1CC[C@@H](c2ccc(Cl)c(Cl)c2)c2ccccc21", "note": "[sertraline]", "values": [{"measurement": "efficacy in PTSD", "setting": "[8]", "value": "modest effect sizes and limited efficacy"}]}
